Assay results published in patent publication US12357621B2, “BET inhibitors as a treatment for myelofibrosis” (Impact Biomedicines, Inc., priority 2021, dated 2025).
Where two headings read alike, the source gives them in different places.

How the values were obtained:
[1] = 125 mg QD; clinical studies; cited from earlier work
HEL92.1.7 cells [2] = assay: CellTiter-Glo proliferation/viability assay, single agent and JAKi combination (Example 1); assay type: cell-based; conditions: single agent; for IC50: 3 days incubation, CTG
Experimental: (§1) HEL92.1.7 and SET-2 are post-MPN secondary acute myeloid leukemia (sAML) cell lines that harbor the JAK2 V617F mutation and serve as cell line models of the malignant clones driving disease in MPNs.
(§2) HEL92.1.792.1.7 (post-MPN sAML), a homozygous mutant (V617F), SET-2 (post-MPN sAML), a heterozygous mutant (V617F), were cultured in Roswell Park Memorial Institute (RPMI) 1640 medium (ATCC) supplemented with 10% or 20% fetal b ovine serum (FBS) (Corning) for HEL92.1.792.17 or SET-2 respectively, 2 mM L-glutamine (L-glu) (Gibco), and non-essential amino acid 1× (NEAA) cell culture supplement (Gibco). WI-38 primary lung fibroblastWI-38 were cultured in Eagle's Minimum Essential Medium (EMEM) (ATCC) with 10% FBS, 2 mM L-glu, and 1× NEAA.
(§3) CellTiter-Glo® (CTG), a luminescent dye that measures adenosine-5′-triphosphate (ATP), was used to quantify the cell proliferation in the 3 cell types in duplicate. Compound (I) was pre-spotted into 384-well plates (diluted in final dimethyl sulfoxide [DMSO] concentration of 0.1% for assay volume of 50 μL). A 10-point dose-response starting at […] with a 4-fold dilution that included one DMSO point and nine drug points was tested for each cell line. The JAK inhibitors (JAKi) Rux and Fed were also pre-spotted at concentrations of 0, 0.03, 0.1, 0.3, and 0.6 μM and HEL92.1.7 constant for each 10-point the Compound (I) dose-response curve (DRC) to produce five compounds of formula (I) DRCs for each JAKi in each cell line.
(§4) A cell suspension volume of 50 μL at their respective seeding densities was added to 384-well plates containing Compound (I) plus JAKi. The effect of Compound (I) single agent or JAKi combination on the proliferation/viability of cells was assessed after 3 days of incubation. Twenty-five microliters of CTG per well was then dispensed to the cell suspension, and ATP released by viable cells was measured after a 30-minute incubation as relative luminescence units (RLU) using an EnVision plate reader (PerkinElmer, Covina, CA). Cytotoxicity was indicated by a lower ATP level in the media after 3-day drug treatment compared to the Day 0 ATP level. Day 0 CTG was read for HEL92.1. and SET-2 suspension cell lines while the Day 0 CTG read for WI-38 could not be read because it is an adherent cell line.
(§5) Percent growth (% Growth) was calculated with the equation [% Growth=(Day 5 RLU—Day 0 RLU)/(Day 0 RLU)] while percent DMSO (% DMSO) was calculated with the equation [% DMSO=(Treatment RLU/DMSO RLU)×100]. All data was analyzed by GraphPad Prism 7 with the XY analyses nonlinear regression curve fit using the parameters for “log(inhibitor) vs. response—Variable slope (four parameters).” Cytotoxicity was called if any part of the DRC CTG signal went below the Day 0 CTG read and cytostatic effects were indicated by the DRC CTG signal staying above the Day 0 line.
(§6) Combination analysis was performed with software Combenefit version 2.021. Combination matrix plots describing additivity effects were generated with the Highest Single-Agent (HSA) model, combination matrix plots describing synergy effects were generated with the Bliss model, and the HSA and Bliss scores for each combination matrix plot were tabulated. An arbitrary cut off-of 10 for HSA and Bliss scores was used to reflect significant additivity and synergy, respectively. […]

SET-2 cells [3] = assay: as above; assay type: cell-based; conditions: single agent
Experimental: as §1, §2, §3, §4, §5, §6

[4] = tested on: primary human myelofibrosis samples; assay: Colony formation assay in primary myelofibrosis samples (Example 2); assay type: cell-based; conditions: for IC50: Homo sapiens
Experimental: (§7) Bone marrow or peripheral blood mononuclear cells from myelofibrosis (MF) patients were directly seeded in semisolid Methocult media (H3404) with Compound (I) alone, (at concentrations ranging from 1.25 to 10 nM) or in combination with Fed (at 100 and 300 nM) or Rux (at 30 and 100 nM). Treatment was added at the beginning and maintained throughout the 14-day incubation period without compound washout.
(§8) Colony forming unit (CFU) data acquisition and automatic colony counting were performed using the STEMvision device and software (StemCell Technologies, Vancouver, Canada). Counting corrections according to standard criteria were done manually by a trained user. GraphPad Prism 7 was used for data plotting and analysis.

[5] = tested on: bone marrow CD34+ cells from healthy volunteers; assay: Colony-forming assay with normal hematopoietic progenitors (Example 2); assay type: cell-based; conditions: Homo sapiens, 336 h, healthy donors, 14 days
Experimental: as §7
To test the effects of Compound (I) on the functionality of normal hematopoietic progenitors, colony-forming assays were also done with bone marrow CD34^+ cells from healthy volunteers using the same conditions of treatment as described for MF samples.
as §8

HEL92.1.7 cells [6] = assay: CellTiter Glo cell viability assay (Example 5); assay type: cell-based; conditions: for IC50: Homo sapiens
Experimental: (§9) Cells were seeded in 96-well plates at 10,000 cells per well in 100 μL of media containing either 0.1% DMSO or varying concentrations of drug. Cell viability was determined 3 days and 5 days later via the CellTiter GloLuminescent Cell Viability Assay from Promega (Madison, WI) according to the manufacturer's protocol. Specifically, 50 μL of reagent was added to each well and plates were incubated for 10 minutes in the dark to stabilize the luminescent signal. Luminescence was then detected using a chemiluminescence detection system (EnVision Multimode Microplate Reader; PerkinElmer).

SET-2 cells [7] = assay: CellTiter Glo cell viability assay (Example 5); assay type: cell-based; conditions: for IC50: Homo sapiens
Experimental: as §9

[8] = First-in-human PK study of Compound (I) (Example 6); assay type: in vivo; conditions: for Cmax: Cycle 2 Day 5, 5 days on/2 days off, read-out: Cmax Cycle 2 Steady State (geometric mean)
Experimental: A first-in-human study was conducted on Compound (I) with select advanced tumors and hematologic malignancies. PK data was available from 65 subjects across 5 doses and 3 schedules. Intensive samples were collected on Cycle 1 Day 1 and Cycle 2 Day 5, Day 7, or Day 14 based on dosing schedule (5 days on/2 days off, 7 days on/14 days off, and 14 days on/7 days off).

[9] = tested on: cell models expressing mutationally active JAK2V617F or FLT3ITD; conditions: cited from earlier work
[10] = tested on: mouse models of JAK2V617F-driven myeloproliferative disease; conditions: in vivo; cited from earlier work

Cc1noc2c1-c1ccccc1C(c1ccc(Cl)cc1)=N[C@H]2CC(N)=O [CPI-0610]
Cmax [1]: 4000 nM | T1/2 [1]: 16 h

Cc1nnn(C)c1-c1cnc2c3ccc(C(C)(C)O)cc3n([C@H](c3ccccc3)C3CCOCC3)c2c1 [Compound (I)]
IC50 (HEL92.1.7 cells [2]; Homo sapiens, HEL 92.1.7, 72 h): 6.2 nM | IC50 (HEL92.1.7 cells [2]): 5.6 nM | cytotoxic vs cytostatic effect (HEL92.1.7 cells [2]; CTG signal vs Day 0): cytotoxic effects | IC50 (SET-2 cells [3]; Homo sapiens, 72 h, 3 days incubation, CTG): 1.9 nM | cytotoxic vs cytostatic effect (SET-2 cells [3]; CTG signal vs Day 0): cytotoxic effects | IC50 ([4]; 336 h, range among 10 primary human myelofibrosis samples, 14 days, read-out: IC50 values for inhibition of colonies): 1.25 to 4.46 nM | IC50 ([4]; 336 h, sample MF 18 (JAK2), single agent, colony formation 14 days, read-out: IC50 Compound (I)): 1.58 nM | IC50 ([4]; 336 h, sample MF 22 (WT), single agent, colony formation 14 days, read-out: IC50 Compound (I)): 3.7 nM | IC50 ([4]; 336 h, sample MF 29 (JAK2), single agent, colony formation 14 days, read-out: IC50 Compound (I)): 2.56 nM | IC50 ([4]; 336 h, sample MF 31 (CALR), single agent, colony formation 14 days, read-out: IC50 Compound (I)): 2.02 nM | IC50 ([4]; 336 h, sample MF 33 (CALR), single agent, colony formation 14 days, read-out: IC50 Compound (I)): 4.46 nM | IC50 ([4]; 336 h, sample MF 38 (WT), single agent, colony formation 14 days, read-out: IC50 Compound (I)): 2.11 nM | IC50 ([4]; 336 h, sample MF 54 (JAK2), single agent, colony formation 14 days, read-out: IC50 Compound (I)): 1.25 nM | IC50 ([4]; 336 h, sample MF 63 (CALR), single agent, colony formation 14 days, read-out: IC50 Compound (I)): 2.6 nM | IC50 ([4]; 336 h, sample MF 76 (JAK2), single agent, colony formation 14 days, read-out: IC50 Compound (I)): 3.43 nM | IC50 ([4]; 336 h, sample MF 77 (JAK2), single agent, colony formation 14 days, read-out: IC50 Compound (I)): 1.27 nM | therapeutic index (TI) ([4]; in 7 out of 10 MF samples, ratio of IC50 in MF sample and average IC50 in normal bone marrow CD34+ cells): > 1 fold | IC50 ([5]; read-out: IC50 for inhibition of BFU-E): ~2.3 nM | IC50 ([5]; CFU-GM, read-out: IC50 for inhibition of CFU-GM): ~3 nM | IC50 (HEL92.1.7 cells [6]; HEL 92.1.7, 72 h, Day 3, read-out: single agent IC50): 15 nM | IC50 (HEL92.1.7 cells [6]; HEL 92.1.7, 120 h, Day 5, read-out: single agent IC50): 19 nM | activity compared to CPI-0610 (HEL92.1.7 cells [6]; viability): better activity | IC50 (SET-2 cells [7]; 72 h, Day 3, read-out: single agent IC50): 2.8 nM | IC50 (SET-2 cells [7]; 120 h, Day 5, read-out: single agent IC50): 2.4 nM | activity compared to CPI-0610 (SET-2 cells [7]; viability): better activity | Cmax ([8]; dose 0.75 mg): 272 nM | Cmax ([8]; dose 1.25 mg): 577 nM | Cmax ([8]; dose 2.0 mg): 892 nM | Cmax ([8]; human, in vivo, dose 3.0 mg): 1200 nM | Cmax ([8]; human, in vivo, dose 4.5 mg): 1840 nM | half-life ([8]; in vivo, single dose, 5 days on/2 days off schedule, human, read-out: terminal half-life (converted)): ~64 h

Cc1cnc(Nc2ccc(OCCN3CCCC3)cc2)nc1Nc1cccc(S(=O)(=O)NC(C)(C)C)c1 [fedratinib]
IC50 ([4]; sample MF 18 (JAK2), fedratinib alone, read-out: IC50 FEDR): 146 nM | IC50 ([4]; sample MF 22 (WT), fedratinib alone, read-out: IC50 FEDR): 309 nM | IC50 ([4]; sample MF 29 (JAK2), fedratinib alone, read-out: IC50 FEDR): 472 nM | IC50 ([4]; sample MF 31 (CALR), fedratinib alone, read-out: IC50 FEDR): 908 nM | IC50 ([4]; sample MF 33 (CALR), fedratinib alone, read-out: IC50 FEDR): 930 nM | IC50 ([4]; sample MF 38 (WT), fedratinib alone, read-out: IC50 FEDR): 931 nM | IC50 ([4]; sample MF 54 (JAK2), fedratinib alone, read-out: IC50 FEDR): 381 nM | IC50 ([4]; sample MF 63 (CALR), fedratinib alone, read-out: IC50 FEDR): 779 nM | IC50 ([4]; sample MF 76 (JAK2), fedratinib alone, read-out: IC50 FEDR): > 1000 nM | IC50 ([4]; sample MF 77 (JAK2), fedratinib alone, read-out: IC50 FEDR): 695 nM | apoptotic cell death [9]: induced | cell proliferation [9]: inhibited | phosphorylation of STAT3 and STAT5 proteins [9]: reduced | phosphorylation of STAT3/5 [10]: blocked | survival, WBC counts, hematocrit, splenomegaly, and fibrosis [10]: improved

N#CC[C@H](C1CCCC1)n1cc(-c2ncnc3[nH]ccc23)cn1 [ruxolitinib]
IC50 ([4]; sample MF 18 (JAK2), ruxolitinib alone, read-out: IC50 RUX): 35.5 nM | IC50 ([4]; sample MF 22 (WT), ruxolitinib alone, read-out: IC50 RUX): 212 nM | IC50 ([4]; sample MF 29 (JAK2), ruxolitinib alone, read-out: IC50 RUX): 212 nM | IC50 ([4]; sample MF 31 (CALR), ruxolitinib alone, read-out: IC50 RUX): 284 nM | IC50 ([4]; sample MF 33 (CALR), ruxolitinib alone, read-out: IC50 RUX): 862 nM | IC50 ([4]; sample MF 38 (WT), ruxolitinib alone, read-out: IC50 RUX): 217 nM | IC50 ([4]; sample MF 54 (JAK2), ruxolitinib alone, read-out: IC50 RUX): 686 nM | IC50 ([4]; sample MF 63 (CALR), ruxolitinib alone, read-out: IC50 RUX): 70.6 nM | IC50 ([4]; sample MF 76 (JAK2), ruxolitinib alone, read-out: IC50 RUX): 686 nM | IC50 ([4]; sample MF 77 (JAK2), ruxolitinib alone, read-out: IC50 RUX): 528 nM
